Each structure is given as a SMILES string.

This test has as its system Hepatitis C virus. Briefly: Antiviral activity against HCV by viral replicon assay. It is filed as functional, organism-based, Hepacivirus hominis.

With `CC(C)(C)C(=O)SCCOP(=O)(OCCSC(=O)C(C)(C)C)OC[C@H]1O[C@@H](n2cc3cc[nH]c3nc2=O)[C@H](O)[C@@H]1O`, the EC50 was determined as 60 µM.

As a reminder, the EC50 is the concentration needed to bring the measured effect to its halfway point. Read a low EC50 as a more potent agent.

These data come from ChEMBL document CHEMBL1139784, “Design and evaluation of a potential mutagen for Hepatitis C virus” (Bioorg Med Chem Lett, 2007).
